Results: patent publication US6984729B1, “Oligonucleotides specific for hepatitis B virus” (priority 1995, dated 2006)
“Also recorded” adds a separate entry of the source.

Legend:
[1] = tested on: replicative intermediate (RI) HBV DNA in HepG2.2.15 cells; experiment: Southern hybridization viral assay in HepG2.2.15 cells; assay type: cell-based, hepatitis B virus; settings: titrated concentrations, FIGS. 11, 12
From the text: The activity of antisense oligonucleotides was also studied in a viral assay in HepG2.2.15 cells, which have been stably transfected with plasmids carrying whole HBV genomes (Sells et al. (1987) Proc. Nat. Acad. Sci. 84:1005–1009; Sureau et al. (1986) Cell 47:37–47). […] A more definitive test is Southern hybridization, which provides data concerning the character of the detected DNA in addition to quantitation. This assay has been described previously for the screening of anti-HBV compounds on HepG2.2.15 cells (Doong et al. (1991) Proc. Nat. Acad. Sci. (USA) 88:8495–8499). In view of the many potential sources of HBV DNA from transfected cells, this assay allows for a more meaningful interpretation of results than the other methods mentioned.
The cell line HepG2.2.15 (Sells et al. (1988) J. Virol. 62:2836–2844) was routinely cultured in RPMI.1640 medium (Life Technologies Ltd., Paisley, Scotland) supplemented with 10% fetal bovine serum (FBS), 100 U/ml penicillin, and 150 μg/ml streptomycin. Cultures were replaced after 10 passages with cells freshly cultured from a mycoplasma-free frozen stock. Cultures were maintained at 37° C. in a humidified atmosphere of 5% CO2 in air.
Cells were cultured in 6-well plates at 10^6 cells/well in 4 ml medium (RPMI.1640 as above but supplemented with 5% FBS) and maintained as above. […]

[2] = tested on: internally 32P-labelled HBV precore-core RNA (epsilon region); experiment: RNase H cleavage of HBV precore-core RNA with noncontiguous oligonucleotides targeted to the epsilon region; assay type: biochemical, hepatitis B virus
Protocol: To determine whether an oligonucleotide of the invention is capable of successfully hybridizing to its target, an RNase H assay was performed (Frank et al. (1993) Proc. Int. Conf. Nucleic Acid Med. Applns. 1:4.14(abstract)). This assay is useful when a region of at least four contiguous nucleotides of the oligonucleotide is DNA and the target is RNA. Hybridization of the DNA portion of the oligonucleotide to the RNA target is identified by cleavage at that site by RNase H.
Noncontiguous oligonucleotides targeted to the HBV epsilon region have also been prepared and tested. The epsilon region is characterized by an RNA stem-loop structure consisting primarily of double-stranded RNA with a single-stranded bulge and loop of 6 bases each (FIG. 3). […] The ability of RNase H to cleave an RNA in this manner inflicts greater damage on the RNA than normal antisense oligodeoxynucleotides, while allowing the targeting of a biologically important region that is otherwise difficult to target due to its double-stranded nature.
Based on this information, several oligodeoxynucleotide phosphorothioates were prepared to test the hypothesis that hybridization by mode B is preferred when spanning the base of an RNA stem. 20mer and 24mer noncontiguous oligonucleotides (Table 2) were prepared as well as the 10mers and 12mers corresponding to the “arms” of the noncontiguous sequences.
If a single oligodeoxynucleotide were able to bind across the base of epsilon to sequences on either side of the stem, RNase H might cleave both sites and effectively cut out the epsilon stem-loop from the RNA. […] The 12+12 noncontiguous phosphorothioates show the same ability to bind across the base of the RNA stem. […] Double cleavage of the transcript in the presence of the mixture of 12mer arms (HBV71+HBV72) was much slower (FIG. 6B).
When oligonucleotides hybridizing via mode B were lengthened to allow strand invasion of the RNA stem, disruption of the stem-loop structure occurred. Oligonucleotides HBV89 (SEQ ID NO:39), HBV90 (SEQ ID NO:40), and HBV91 (SEQ ID NO:41) bind across the base of epsilon via mode B and strand invade on either the 5 side (HBV89) or the 3′ side (HBV90 and HBV91) of the RNA stem. HBV89M is an extension of HBV64M with ten 2′-O-methyl RNA residues invading the RNA stem on the 5′-side. Addition of these strand invading nucleotides increased the cleavage efficiency from 23% to 32% at 100 nM oligonucleotide.
Uniformally ^32P-labelled RNA was prepared from 1 μg linearized plasmid using the Ambion MEGAscript In Vitro Transcription Kit (Ambion, Inc., Austin, Tex.) according to the manufacturers' instructions, using [α-^32p] CTP as the radioactive label. The RNA was treated with RNase-free DNase I (Ambion, Inc., Austin, Tex.), extracted with phenol:chloroform: isoamyl alcohol (25:24:1) and purified from nucleotides and nucleosides on a G-50 Sephadex spin column (Boehringer-Mannheim, Indianapolis, Ind., or Pharmacia, Uppsala, Sweden).
In 9 μl 1× RNase H buffer (40 mM Tris-HCl pH 7.4, 4 mM MgCl2, 1 mM DTT), 20–100 nM labelled RNA and 100 nM oligonucleotides were preincubated for 15 min at 37° C. 1 μl RNase H (1 U/μl) was added, and the reaction was incubated at 37° C. for 10 min. The reactions were quenched and analyzed as described above.
Quantitation of the cleavage products was performed using software supplied with the Phosphorimager (Molecular Dynamics, Sunnyvale, Calif., or Bio-Rad Laboratories, Hercules, Calif.). “Counts” were determined by drawing a box around the band of interest and subtracting the background determined with a box drawn nearby. Counts in a product band were compared to total counts in the lane above that band to determine % cleavage.

parent pGLori sequence = experiment: Firefly luciferase reporter gene assay in HepG2 cells stably transfected with parent construct (control); assay type: cell-based
Protocol: Oligonucleotides targeted to the polymerase translation initiation region were also tested in mammalian cells using a firefly luciferase reporter gene assay. The 35 nucleotide region spanning the translation start site of the HBV ayw polymerase gene from nt 2294–2328 was cloned 5′ to, and in frame with, the entire open reading frame of the firefly luciferase gene in the plasmid pGLori, to produce the plasmid pGLpol (FIG. 10). Transcription of this pol-luciferase gene fusion was placed under the control of the cytomegalovirus early gene promoter. Expression of the pol-luciferase fusion in mammalian cells was quantified in a luminometer by addition of luciferin substrate and ATP cofactor to cell lysates. In all cellular antisense assays, a random sequence 20mer phosphorothioate oligonucleotide (random 20mer PS) was used as a negative control. […]
Stably transfected HepG2 cells were seeded into 96 well plates. […] Cells were washed twice with Dulbecco's phosphate-buffered saline (PBS) and lysed in 50 μl cell lysis buffer (Analytical Luminescence Laboratory, San Diego, Calif.). Luciferase activity was measured in 20 μl lysate using Analytical Luminescence Laboratory substrates in a MicroLumat LB 96 P luminometer (EG&G Berthold, Nashua, N.H.).

## ACCCAAGGCACAGCTTGGAG (phosphorothioate, further chemistry not given here) [HBV6]
[1]
  inhibition of the formation of replicative intermediate (RI) HBV DNA: significant inhibition

## AGGCAGAGGTGATATAAGGGTCGA (chemistry not given here) [HBV67]
[2]; 10+10 and 12+12 noncontiguous oligonucleotides versus mixtures of arms, FIGS. 5A, 6A
  total RNA cleavage by RNase H: equal
[2]; FIGS. 5B, 6B
  double cleavage (twice cleaved product) by RNase H on both sides of the epsilon stem: efficiently activate RNase H cleavage on both sides of the stem after only 1.5 minutes; also recorded: slightly more cleavage than mode A (HBV79)
[1]
  inhibition of the formation of replicative intermediate (RI) HBV DNA: Inhibition was also found

## Luc +1–+20: 20mer phosphorothioate antisense oligonucleotide targeting the first 20 nucleotides of the firefly luciferase coding region, positive control, SEQ ID NO:50 (antisense ATGTTTTTGGCGTCTTCCAT; all phosphorothioate, sugars by position and methylation of C not given here)
Parent pGLori sequence
  antisense activity on luciferase expression, parent pGLori: exhibited antisense activity
